In patent publication US9187472B2 (AbbVie Inc., priority 2012, dated 2015):

Columns and labels:
[1] = biological target: NAMPT (human, recombinant, C-terminally His-tagged) (Homo sapiens, UniProt P43490); assay: Time-Resolved Fluorescence Resonance Energy Transfer (TR-FRET) Binding Assay of NAMPT; conditions: without substrates; 6.8 nM NAMPT, 200 nM probe, 3 hours equilibration
In short: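 Read-out is the time-resolved FRET ratio Em520/Em495 (excitation 337 nm) between a terbium anti-His antibody (1 nM) on the enzyme and an Oregon Green 488-labelled nicotinamide-competitive inhibitor probe (200 nM). Enzyme was 6.8 nM, DMSO 2%, pH 7.5 HEPES buffer; 3 h room-temperature equilibration preceded reading.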

[2] = system: PC3 cells; assay: NAMPT Cell Proliferation Assay; format: cell-based; conditions: Homo sapiens, PC-3, 120 h, 5 days incubation, cell viability by Cell Titer Glo
In short: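 IC50 values derive from sigmoidal dose-response fits of percent inhibition of PC3 viability, measured by luminescence after 5 days of compound treatment. Cells (500/well, RPMI containing 10% heat-inactivated FBS) are allowed to attach overnight, and compounds are tested at 10-fold dilutions between 10 μM and 1×10^−5 μM.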

[3] = biological target: NAMPT (Homo sapiens, UniProt P43490); assay: TR-FRET Binding Assay of NAMPT with PRPP; conditions: with 200 μM PRPP and 2.5 mM ATP; 2 nM NAMPT, 2 nM probe, 16 hours equilibration
In short: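 NAMPT 2 nM + probe 2 nM + Tb-anti-His Ab 1 nM; PRPP 200 μM, ATP 2.5 mM, DMSO 2%; 16 h equilibration before TR-FRET read.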

NAMPT, sequence (P43490 whole entry): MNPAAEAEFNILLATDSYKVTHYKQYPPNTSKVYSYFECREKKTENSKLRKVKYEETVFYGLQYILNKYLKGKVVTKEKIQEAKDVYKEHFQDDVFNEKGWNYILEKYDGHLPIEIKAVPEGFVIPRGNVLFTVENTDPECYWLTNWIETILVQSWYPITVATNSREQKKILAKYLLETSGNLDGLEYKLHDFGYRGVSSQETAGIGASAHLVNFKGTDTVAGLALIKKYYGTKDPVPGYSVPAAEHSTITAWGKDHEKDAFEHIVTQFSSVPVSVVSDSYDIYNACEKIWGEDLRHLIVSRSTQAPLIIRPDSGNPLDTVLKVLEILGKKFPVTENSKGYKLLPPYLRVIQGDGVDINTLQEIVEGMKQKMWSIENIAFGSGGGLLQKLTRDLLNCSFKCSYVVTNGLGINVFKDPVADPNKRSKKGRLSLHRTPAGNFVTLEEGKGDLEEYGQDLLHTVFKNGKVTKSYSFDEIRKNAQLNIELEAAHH
NAMPT (human, recombinant, C-terminally His-tagged), sequence (P43490 whole entry): as above

| IC50 [1] | IC50 [2] | IC50 [3] | SMILES |
| --- | --- | --- | --- |
| 220 nM | 1310 nM | 0.659 nM | CC(C)CCNC(=O)c1cnc(NC(=O)NCc2ccn3ccnc3c2)s1 [Example 407, 2-{[(imidazo[1,2-a]pyridin-7-ylmethyl)carbamoyl]amino}-N-(3-methylbutyl)-1,3-thiazole-5-carboxamide] |
| 565 nM | 101 nM | 0.301 nM | N#Cc1ccc(C(=O)N2CCC(c3ccc(C(=O)NCc4ccn5ccnc5c4)cc3)CC2)cc1 [Example 520, 4-[1-(4-cyanobenzoyl)piperidin-4-yl]-N-(imidazo[1,2-a]pyridin-7-ylmethyl)benzamide] |
| 19.9 nM | 13 nM | 0.624 nM | CC(C)Cn1cc(-c2ccc(C(=O)NCc3cn4ccnc4cn3)o2)cn1 [Example 819, N-(imidazo[1,2-a]pyrazin-6-ylmethyl)-5-[1-(2-methylpropyl)-1H-pyrazol-4-yl]furan-2-carboxamide] |
| 163 nM | 24.7 nM | 1.12 nM | O=C(NCc1ccn2ccnc2c1)Nc1ccc(O[C@@H]2CCN(C(=O)c3cc(F)cc(F)c3)C2)cc1 [Example 694, 1-(4-{[(3R)-1-(3,5-difluorobenzoyl)pyrrolidin-3-yl]oxy}phenyl)-3-(imidazo[1,2-a]pyridin-7-ylmethyl)urea] |
| 255 nM | 172 nM | 4.76 nM | O=C(NCc1ccc2nccn2c1)c1cnc(N2CC(c3ccccc3)OC2=O)s1 (stereo not drawn) [Example 122, N-(imidazo[1,2-a]pyridin-6-ylmethyl)-2-(2-oxo-5-phenyl-1,3-oxazolidin-3-yl)-1,3-thiazole-5-carboxamide] |
| 1530 nM | 794 nM | 1.54 nM | O=C(NCc1ccn2ccnc2c1)c1ccc(C2=CCN(C(=O)CC3CC3)CC2)o1 [Example 750, 5-[1-(cyclopropylacetyl)-1,2,3,6-tetrahydropyridin-4-yl]-N-(imidazo[1,2-a]pyridin-7-ylmethyl)furan-2-carboxamide] |
| 2860 nM | 963 nM | 0.334 nM | O=C(CC(F)(F)F)NC1(c2ccc(C(=O)NCc3ccn4ccnc4c3)s2)CCC1 [Example 472, N-(imidazo[1,2-a]pyridin-7-ylmethyl)-5-{1-[(3,3,3-trifluoropropanoyl)amino]cyclobutyl}thiophene-2-carboxamide] |
| 81.2 nM | 9.42 nM | 0.224 nM | O=C(NCc1ccn2ccnc2c1)c1ccc(C2CN(C(=O)c3ccccc3)C2)cc1 [Example 549, 4-(1-benzoylazetidin-3-yl)-N-(imidazo[1,2-a]pyridin-7-ylmethyl)benzamide] |
| 1440 nM | 820 nM | 0.298 nM | CC(C)OCC(=O)N1CCC(c2ccc(C(=O)NCc3ccn4ccnc4c3)cc2)C1 (stereo not drawn) [Example 371, N-(imidazo[1,2-a]pyridin-7-ylmethyl)-4-{1-[(propan-2-yloxy)acetyl]pyrrolidin-3-yl}benzamide] |
| 469 nM | 398 nM | 0.363 nM | O=C(CCC1CCCO1)Nc1ccc(C(=O)NCc2ccn3ccnc3c2)cc1 (stereo not drawn) [Example 210, N-(imidazo[1,2-a]pyridin-7-ylmethyl)-4-{[3-(tetrahydrofuran-2-yl)propanoyl]amino}benzamide] |
| 125 nM | 30.7 nM | 1.21 nM | O=C(NCc1ccn2ccnc2c1)Nc1ccc(C2CCN(C(=O)c3ccc(F)cc3)CC2)cc1 [Example 721, 1-{4-[1-(4-fluorobenzoyl)piperidin-4-yl]phenyl}-3-(imidazo[1,2-a]pyridin-7-ylmethyl)urea] |
| 12.3 nM | 23.9 nM | 0.43 nM | O=C(CCC1CCCC1)Nc1ccc(NC(=O)NCc2ccc3nccn3c2)cc1 [Example 275, 3-cyclopentyl-N-(4-{[(imidazo[1,2-a]pyridin-6-ylmethyl)carbamoyl]amino}phenyl)propanamide] |
| 4350 nM | 7450 nM | 0.169 nM | COCC(C)C(=O)Nc1ccc(NC(=O)Nc2ccc3nccn3c2)cc1 (stereo not drawn) [Example 43] |
| 462 nM | 67.2 nM | 0.641 nM | O=C(NCc1ccn2ccnc2c1)c1ccc(C2CN(C(=O)c3ccccn3)C2)cc1 [Example 661, N-(imidazo[1,2-a]pyridin-7-ylmethyl)-4-[1-(pyridin-2-ylcarbonyl)azetidin-3-yl]benzamide] |
| 13.6 nM | 1.06 nM | 0.398 nM | O=C(NCc1ccn2ccnc2c1)Nc1ccc(C2CCN(C(=O)c3ccccc3)CC2)cc1 [Example 229, 1-[4-(1-benzoylpiperidin-4-yl)phenyl]-3-(imidazo[1,2-a]pyridin-7-ylmethyl)urea] |
| 535 nM | 34.6 nM | 1.16 nM | CC(C)(C)CC(=O)N1CC(c2ccc(C(=O)NCc3ccn4ccnc4c3)cc2)C1 [Example 652, 4-[1-(3,3-dimethylbutanoyl)azetidin-3-yl]-N-(imidazo[1,2-a]pyridin-7-ylmethyl)benzamide] |
| 481 nM | 320 nM | 1.34 nM | O=C(NCc1ccn2ccnc2c1)c1ccc(C2CCN(S(=O)(=O)C3CC3)CC2)cc1 [Example 684, 4-[1-(cyclopropylsulfonyl)piperidin-4-yl]-N-(imidazo[1,2-a]pyridin-7-ylmethyl)benzamide] |
| 650 nM | 601 nM | 0.18 nM | CC(C)C(=O)N1CCC(c2ccc(C(=O)NCc3ccn4ccnc4c3)cc2)C1 (stereo not drawn) [Example 367, N-(imidazo[1,2-a]pyridin-7-ylmethyl)-4-[1-(2-methylpropanoyl)pyrrolidin-3-yl]benzamide] |
| 481 nM | 148 nM | 0.51 nM | O=C(NCc1ccn2ccnc2c1)c1ccc(C2CCN(C(=O)c3ccncc3)C2)cc1 (stereo not drawn) [Example 608, N-(imidazo[1,2-a]pyridin-7-ylmethyl)-4-[1-(pyridin-4-ylcarbonyl)pyrrolidin-3-yl]benzamide] |
| 77.6 nM | 3.04 nM | 0.202 nM | CC(C)C(C)C(=O)N1CCC(c2ccc(C(=O)NCc3ccn4ccnc4c3)cc2)CC1 (stereo not drawn) [Example 536, 4-[1-(2,3-dimethylbutanoyl)piperidin-4-yl]-N-(imidazo[1,2-a]pyridin-7-ylmethyl)benzamide] |
| 2350 nM | 457 nM | 1.3 nM | O=C(CC1CCOC1)NC1(c2ccc(C(=O)NCc3ccn4ccnc4c3)s2)COC1 (stereo not drawn) [Example 326, N-(imidazo[1,2-a]pyridin-7-ylmethyl)-5-{3-[(tetrahydrofuran-3-ylacetyl)amino]oxetan-3-yl}thiophene-2-carboxamide] |
| 3360 nM | 604 nM | 2.25 nM | O=C(NCc1ccc2nccn2c1)c1ccc(OC2CCN(C(=O)CC(F)(F)F)CC2)cc1 [Example 170, N-(imidazo[1,2-a]pyridin-6-ylmethyl)-4-{[1-(3,3,3-trifluoropropanoyl)piperidin-4-yl]oxy}benzamide] |
| 64.3 nM | 13.8 nM | 1.22 nM | O=C(NCc1ccn2ccnc2c1)Nc1ccc(O[C@@H]2CCN(C(=O)c3cccc(F)c3)C2)cc1 [Example 690, 1-(4-{[(3R)-1-(3-fluorobenzoyl)pyrrolidin-3-yl]oxy}phenyl)-3-(imidazo[1,2-a]pyridin-7-ylmethyl)urea] |
| 37.4 nM | 1.91 nM | 0.274 nM | O=C(NCc1ccn2ccnc2c1)c1ccc(-c2cnn(CC3CCOC3)c2)s1 (stereo not drawn) [Example 252, N-(imidazo[1,2-a]pyridin-7-ylmethyl)-5-[1-(tetrahydrofuran-3-ylmethyl)-1H-pyrazol-4-yl]thiophene-2-carboxamide] |
| 91.1 nM | 4.02 nM | 0.278 nM | CC(C)CC(=O)N1CCC(c2ccc(C(=O)NCc3ccn4ccnc4c3)s2)C1 (stereo not drawn) [Example 467, N-(imidazo[1,2-a]pyridin-7-ylmethyl)-5-[1-(3-methylbutanoyl)pyrrolidin-3-yl]thiophene-2-carboxamide] |
| 67.3 nM | 24.1 nM | 0.351 nM | O=C(NCc1ccn2ccnc2c1)Nc1ccc(C2CCN(C(=O)[C@@H]3CCOC3)CC2)cc1 [Example 287, 1-(imidazo[1,2-a]pyridin-7-ylmethyl)-3-(4-{1-[(3R)-tetrahydrofuran-3-ylcarbonyl]piperidin-4-yl}phenyl)urea] |
| 840 nM | 62.1 nM | 1.44 nM | COCCOCC(=O)N1CC=C(c2ccc(C(=O)NCc3ccc4nccn4c3)cc2)CC1 [Example 103, N-(imidazo[1,2-a]pyridin-6-ylmethyl)-4-{1-[(2-methoxyethoxy)acetyl]-1,2,3,6-tetrahydropyridin-4-yl}benzamide] |
| 2890 nM | 5500 nM | 0.502 nM | C[C@@H]1COC(=O)N1c1ncc(C(=O)NCc2ccn3ccnc3c2)s1 [Example 245, N-(imidazo[1,2-a]pyridin-7-ylmethyl)-2-[(4R)-4-methyl-2-oxo-1,3-oxazolidin-3-yl]-1,3-thiazole-5-carboxamide] |
| 50.8 nM | 13.6 nM | 0.169 nM | O=C(NCc1ccn2ccnc2c1)Nc1ccc(C2=CCN(C(=O)C3CCCO3)CC2)cc1F (stereo not drawn) [Example 307, 1-{2-fluoro-4-[1-(tetrahydrofuran-2-ylcarbonyl)-1,2,3,6-tetrahydropyridin-4-yl]phenyl}-3-(imidazo[1,2-a]pyridin-7-ylmethyl)urea] |
